Experimental findings from patent US6281214A, “Biphenyl derivatives” (Eisai Co., Ltd, priority 1994, dated 2001) are described below.

SMILES strings stand for the structures. Counter-ions that a name gives are not always drawn. Like-named read-outs stand apart in the source and are kept apart here.

Common to all, as to set-up: species or system SD rats
In one experiment the target is T1, serotonin S2 receptor (Rattus norvegicus, UniProt P14842).
T1 construct: The receptor fraction prepared from the cortex was molten and suspended; from tissue; host or cells: cerebral cortex of SD rats (membrane fraction)
T1 sequence (P14842 whole entry): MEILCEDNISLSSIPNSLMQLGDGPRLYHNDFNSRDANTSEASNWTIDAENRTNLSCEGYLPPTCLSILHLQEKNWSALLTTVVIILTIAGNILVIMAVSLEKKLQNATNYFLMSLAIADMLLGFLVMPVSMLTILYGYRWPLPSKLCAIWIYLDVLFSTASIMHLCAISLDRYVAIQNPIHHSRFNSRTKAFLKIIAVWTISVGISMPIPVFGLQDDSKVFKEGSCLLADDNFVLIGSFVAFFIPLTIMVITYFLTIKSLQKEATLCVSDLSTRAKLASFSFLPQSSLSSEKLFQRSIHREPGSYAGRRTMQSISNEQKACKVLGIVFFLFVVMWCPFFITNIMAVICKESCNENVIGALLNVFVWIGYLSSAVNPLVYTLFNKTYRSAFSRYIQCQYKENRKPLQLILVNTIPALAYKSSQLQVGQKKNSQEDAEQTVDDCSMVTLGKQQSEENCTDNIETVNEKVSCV
The experiment in a line: serotonin S2 receptor binding test ([3H] Ketanserin Binding Test). To be noted: 1 nM [3H] Ketanserin, rat cortex, 37° C., 15 minutes. As to the method:
(§1) The compounds of the present invention were subjected to each of serotonin S2 receptor binding test, dopamine D2 receptor binding test and adrenergic α1 receptor binding test.
(§2) The following reagents were used in this test.
(§3) These reagents and samples were each dissolved in 10% ethanol before use. Among them, water-insoluble compounds were each dissolved in ethanol and the obtained solution was diluted with distilled water to an ethanol concentration of 10%. Further, Methylsergide maleate was used in a state dissolved in distilled water.
(§4) SD rats aged 6 to 8 weeks were used.
(§5) SD rats were each slaughtered with a guillotine to extirpate its cerebrum. The cortex and corpus striatum were separated from the cerebrum. The former was used in serotonin S2 receptor binding test and adrenergic α1, receptor binding test, while the latter was used in dopamine D2 receptor binding test.
(§6) The cortex was homogenized in a 0.32 M sucrose solution in an amount ten times the wet weight of the cortex by the use of a teflon glass homogenizer and the resulting mixture was centrifuged at 10,000×G for 20 minutes. The obtained sediment was suspended in 50 mM Tris hydrochloride (pH 7.4) in an amount ten times the initial wet weight of the cortex by the use of a histocothrom, and the obtained suspension was centrifuged at 10,000×G for 20 minutes. This operation was repeated twice. The obtained sediment was suspended in 50 mM Tris hydrochloride (pH 7.4) in an amount 20 times the initial wet weight of the cortex by the use of a histocothrom. The suspension thus prepared was used as a receptor fraction. This receptor fraction was stored at -80° C. until use.
4. [^3 ] Ketanserin Binding Test
The receptor fraction prepared from the cortex was molten and suspended by the use of a histocothrom. The resulting suspension was incubated together with 1 nM-[^3 H] Ketanserin at 37° C. for 15 minutes. The resulting reaction system was filtered through a Whatman GF/B glass filter with an MR-30R type cell harvester mfd. by Blandel. The resulting filter was washed twice with 5 ml of 50 mM Tris hydrochloride (ph 7.4) cooled with ice and the radioactivity of the Ketanserin bound the receptor was determined by the use of a liquid scintillation counter with 5 ml of ACS II. The binding detected in the presence of […] of Methylsergide was regarded as nonspecific binding.
(§7) Each IC50 value was calculated by the probit method and each Ki value was determined by the following formula: [formula]
(§8) In the above formula, C represents the concentration of radioligand, and Kd represents the affinity of radioligand for the receptor as determined by the Scatchard analysis.

Another experiment addresses adrenergic α1 receptor. Kind of experiment: adrenergic α1 receptor binding test ([3H] Prazosin Binding Test). To be noted: 1 nM [3H] Prazosin, rat cortex, room temperature, 60 minutes. The method, then: as §1, §2, §3, §4, §5, §6, §7, §8
6. [^3 H] Prazosin Binding Test
This test was conducted in the same manner as that of the binding test of [^3 H] Ketanserin except that the receptor fraction prepared from the cortex was molten and suspended with a histocothrom, and the obtained suspension was incubated together with 1 nM-[^3 H] Prazosin at room temperature for 60 minutes and that the binding detected in the presence of 10 μl of Phentolamine was regarded as nonspecific binding.

Another experiment addresses T2, dopamine D2 receptor (Rattus norvegicus, UniProt P61169).
T2 construct: the receptor fraction prepared from the corpus striatum was molten and suspended; from tissue; host or cells: corpus striatum of SD rats (membrane fraction)
The experiment in a line: dopamine D2 receptor binding test ([3H] Spiperone Binding Test). The settings on record: 1 nM [3H] Spiperone, rat corpus striatum, room temperature, 60 minutes. The method, then:
as §1, §2, §3, §4, §5
On the other hand, the corpus striatum was homogenized in a 0.32 M sucrose solution in an amount ten times the wet weight of the corpus striatum by the use of a teflon glass homogenizer and the obtained mixture was centrifuged at 1,000×G for 20 minutes. The obtained supernatant was centrifuged at 10,000×G for 20 minutes. The obtained sediments were suspended together in 50 mM Tris hydrochloride (pH 7.4) in an amount ten times the initial wet weight of the corpus striatum by the use of a histocothrom, and the obtained suspension was centrifuged at 10,000×G for 20 minutes. This operation was repeated thrice. The resulting sediment was suspended in 50 mM Krebs-Tris (pH 7.4) in an amount 100 times the initial wet weight of the corpus striatum by the use of a histocothrom. The obtained suspension was used as a receptor fraction. This receptor fraction was stored at -80° C. until use.
as §7, §8
5. [^3 H] Spiperone Binding Test
This test was conducted in the same manner as that of the binding test of [^3 H] Ketanserin except that the receptor fraction prepared from the corpus striatum was molten and suspended with a histocothrom, and the obtained suspension was incubated together with 1 nM-[^3 H], Spiperone at room temperature for 60 minutes and that the binding detected in the presence of 10 μl of Spiperone was regarded as nonspecific binding.

[1] abbreviates: read-out: Ki value, dopamine D2 receptor.

T2 sequence (P61169 whole entry): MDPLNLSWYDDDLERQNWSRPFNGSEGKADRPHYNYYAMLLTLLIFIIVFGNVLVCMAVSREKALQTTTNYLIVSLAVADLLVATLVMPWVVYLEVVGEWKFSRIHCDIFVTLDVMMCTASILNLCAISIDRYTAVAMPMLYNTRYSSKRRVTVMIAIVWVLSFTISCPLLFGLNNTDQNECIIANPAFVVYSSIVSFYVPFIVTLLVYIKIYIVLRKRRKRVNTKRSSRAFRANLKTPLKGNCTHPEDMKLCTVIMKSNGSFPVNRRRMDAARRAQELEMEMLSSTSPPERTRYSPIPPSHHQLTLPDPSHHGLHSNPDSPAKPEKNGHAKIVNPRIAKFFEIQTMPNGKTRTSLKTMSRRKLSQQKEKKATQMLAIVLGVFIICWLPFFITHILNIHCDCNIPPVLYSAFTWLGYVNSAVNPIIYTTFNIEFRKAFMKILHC

Broadly, the Ki is a dissociation constant, usually derived from enzyme kinetics or from competition with a known ligand. `CCC(F)c1cc(N2CCN(CCO)CC2)cc(-c2ccccc2C#N)c1Cl` (single isomer, unassigned) [Example 13, 1-(2-hydroxyethyl)-4-[3-(2-cyanophenyl)-4-chloro-5-(fluoropropyl)]phenylpiperazine]: the results for the Ki on serotonin S2 receptor, on adrenergic α1 receptor and on dopamine D2 receptor (setting [1]) were 24.9 nM, 404 nM and 4.05 nM, respectively.
Regarding `CCCS(=O)(=O)Nc1cc(N2CCN(CC)CC2)cc(-c2ccccc2C)c1Cl` [Example 17, 1-ethyl-4-[3-(2-tolyl)-4-chloro-5-propanesulfonylamino]phenylpiperazine hydrochloride], the Ki was 374 nM on serotonin S2 receptor, 550 nM on adrenergic α1 receptor (hydrochloride) and > 100 nM on dopamine D2 receptor (setting [1]).
As for `CCN1CCN(c2cc(NS(=O)(=O)CC)c(Cl)c(-c3ccccc3C)c2)CC1` [Example 18, 1-Ethyl-4-[3-(2-tolyl)-4-chloro-5-ethanesulfonylamino]phenylpiperazine], the Ki came out at 6.15 nM at serotonin S2 receptor, 53.7 nM at adrenergic α1 receptor and 0.75 nM at dopamine D2 receptor (setting [1]).
For `CCCCS(=O)(=O)Nc1cc(N2CCN(CC)CC2)cc(-c2ccccc2C)c1Cl` [Example 19, 1-Ethyl-4-[3-(2-tolyl)-4-chloro-5-butanesulfonylamino]phenylpiperazine], the Ki at serotonin S2 receptor is 1.95 nM; on adrenergic α1 receptor it was 81.6 nM; at dopamine D2 receptor (setting [1]), 0.64 nM.
On to `CCC(F)c1cc(N2CCN(C)CC2)cc(-c2ccccc2C#N)c1Cl` (stereo not drawn) [Example 20, 1-Methyl-4-[3-(2-cyanophenyl)-4-chloro-5-(1-fluoropropyl)]phenylpiperazine], for which the Ki on serotonin S2 receptor came out at 6.11 nM; at adrenergic α1 receptor it was 314 nM; on dopamine D2 receptor (setting [1]) it was 2.82 nM.
Consider `CCC(F)c1cc(N2CCN(CC)CC2)cc(-c2ccccc2C#N)c1Cl` (stereo not drawn) [Example 21], for which the results for the Ki on serotonin S2 receptor, at adrenergic α1 receptor and at dopamine D2 receptor (setting [1]) were 14.4 nM, 418 nM and 1.85 nM, respectively.
Take `CCC(F)c1cc(N2CCN(C)CC2)cc(-c2ccccc2Cl)c1Cl` (stereo not drawn) [Example 22, 1-Methyl-4-[3-(2-chlorophenyl)-4-chloro-5-(1-fluoropropyl)]phenylpiperazine]: the figures for the Ki at serotonin S2 receptor, on adrenergic α1 receptor and at dopamine D2 receptor (setting [1]) were 19.2 nM, 809 nM and 2.84 nM, respectively.
With `CCC(F)c1cc(N2CCN(CC)CC2)cc(-c2ccccc2Cl)c1Cl` (stereo not drawn) [Example 24, 1-Ethyl-4-[3-(2-chlorophonyl)-4-chloro-5-(1-fluoropropyl)]phenylpiperazine], the inhibition constant (Ki) on serotonin S2 receptor was 40.9 nM; on adrenergic α1 receptor it was 537 nM; at dopamine D2 receptor (setting [1]), 3.6 nM.
On to `CCC(F)c1cc(N2CCN(C)CC2)cc(-c2ccccc2C)c1Cl` (stereo not drawn) [Example 25, 1-Methyl-4-[3-(2-tolyl)-4-chloro-5-(1-fluoropropyl)]phenylpiperazine], for which the Ki at serotonin S2 receptor is 8.27 nM; at adrenergic α1 receptor, > 1000 nM; at dopamine D2 receptor (setting [1]), 2.4 nM.
On to `CCC(F)c1cc(N2CCN(CCO)CC2)cc(-c2ccccc2C)c1Cl` (stereo not drawn) [Example 26, 1-(2-Hydroxyethyl)-4-[3-(2-tolyl)-4-chloro-5-(1-fluloropropyl)]phenylpiperazine], for which the Ki on serotonin S2 receptor was 21.6 nM; on adrenergic α1 receptor, > 1000 nM; on dopamine D2 receptor (setting [1]), 2.67 nM.
Turning to `CCC(F)c1cc(N2CCN(CC)CC2)cc(-c2ccccc2C)c1Cl` (stereo not drawn) [Example 27, 1-Ethyl-4-[3-(2-tolyl)-4-chloro-5-(1-fluloropropyl)]phenylpiperazine], the Ki at serotonin S2 receptor worked out at 10.9 nM; on adrenergic α1 receptor, 455 nM; on dopamine D2 receptor (setting [1]) it was 11.2 nM.
`CCS(=O)(=O)Nc1cc(N2CCN(C)CC2)cc(-c2ccccc2C)c1Cl` [Example 28, 1-Methyl-4-[3-(2-tolyl)-4-chloro-5-ethanesulfonylamino]phenylpiperazine]: the Ki worked out at 5.67 nM at serotonin S2 receptor, 50.8 nM on adrenergic α1 receptor and 1.6 nM on dopamine D2 receptor (setting [1]).
For `CCCS(=O)(=O)Nc1cc(N2CCN(C)CC2)cc(-c2ccccc2C)c1Cl` [Example 29, 1-Methyl-4-[3-(2-tolyl)-4-chloro-5-propanesulfonylamino]phenylpiperazine] the same measures were 4.86 nM, 50.1 nM and 1.19 nM.
As for `CCCCS(=O)(=O)Nc1cc(N2CCN(C)CC2)cc(-c2ccccc2C)c1Cl` [Example 30], the inhibition constant Ki stood at 2.24 nM at serotonin S2 receptor, 92.5 nM at adrenergic α1 receptor and 0.86 nM on dopamine D2 receptor (setting [1]).
For `CCN1CCN(c2cc(NS(=O)(=O)CC)c(Cl)c(-c3ccccc3Cl)c2)CC1` [Example 31, 1-Ethyl-4-[3-(2-chlorophenyl)-4-chloro-5-ethanesulfonylamino]phenylpiperazine] the same measures were 12.4 nM, 36.1 nM and 0.69 nM.
`CCCS(=O)(=O)Nc1cc(N2CCN(CC)CC2)cc(-c2ccccc2Cl)c1Cl` [Example 32, 1-Ethyl-4-[3-(2-chlorophenyl)-4-chloro-5-propanesulfonylamino]phenylpiperazine]: the figures for the Ki on serotonin S2 receptor, at adrenergic α1 receptor and on dopamine D2 receptor (setting [1]) were 3.36 nM, 19.5 nM and 0.38 nM, respectively.
Turning to `CCCCS(=O)(=O)Nc1cc(N2CCN(CC)CC2)cc(-c2ccccc2Cl)c1Cl` [Example 33, 1-Ethyl-4-[3-(2-chlorophenyl)-4-chloro-5-butanesulfonylamino]phenylpiperazine], the Ki at serotonin S2 receptor came out at 6.46 nM; on adrenergic α1 receptor, 86.9 nM; on dopamine D2 receptor (setting [1]), 2.02 nM.
Consider `CCS(=O)(=O)Nc1cc(N2CCN(C)CC2)cc(-c2ccccc2Cl)c1Cl` [Example 34, 1-Methyl-4-[3-(2-chlorophenyl)-4-chloro-5-ethanesulfonylamino]phenylpiperazine], for which the Ki at serotonin S2 receptor turned out to be 7.77 nM; at adrenergic α1 receptor, 25.8 nM; at dopamine D2 receptor (setting [1]), 0.37 nM.
In the case of `CCCS(=O)(=O)Nc1cc(N2CCN(C)CC2)cc(-c2ccccc2Cl)c1Cl` [Example 35, 1-Methyl-4-[3-(2-chloropheyl)-4-chloro-5-propanesulfonylamino]phenylpiperazine], the Ki on serotonin S2 receptor came to 3.37 nM; at adrenergic α1 receptor, 17 nM; on dopamine D2 receptor (setting [1]), 0.5 nM.
`CCCCS(=O)(=O)Nc1cc(N2CCN(C)CC2)cc(-c2ccccc2Cl)c1Cl` [Example 36, 1Methyl-4-[3-(2-chlorophenyl)-4-chloro-5-butanesulfonylamino]phenylpiperazine]: the Ki at serotonin S2 receptor came out at 4.04 nM; at adrenergic α1 receptor, 25.3 nM; at dopamine D2 receptor (setting [1]) it was 1.26 nM.
For `CCN1CCN(c2cc(-c3ccc(F)cc3)c(OC)c(S(=O)(=O)CC)c2)CC1` [Example 40] the same measures were 3.64 nM, > 1000 nM and 9.25 nM.
On to `CCN1CCN(c2cc(CCl)c(OC)c(-c3ccccc3)c2)CC1` [Example 45, 1-Ethyl-4-(3-phenyl-4-methoxy-5-chloromelthy)phenylpiperazine], for which the inhibitory constant (Ki) at serotonin S2 receptor is 192 nM; at adrenergic α1 receptor, 183 nM; on dopamine D2 receptor (Ki value, dopamine D2 receptor) it was 26.9 nM.
Regarding `C=CCCC(F)c1cc(N2CCN(CC)CC2)cc(-c2ccccc2)c1OC` (stereo not drawn) [Example 46, 1-Ethyl-4-{3-phenyl-4-methoxy-5-[1-fluoro-(4-pentenyl)]}phenylpiperazine], the Ki on serotonin S2 receptor was 2.16 nM; on adrenergic α1 receptor it was > 1000 nM; on dopamine D2 receptor (setting [1]), 9.78 nM.
